Measured values as given in patent publication US8486683B2, “Beta-glucosidase enzymes” (Iogen Energy Corporation, priority 2009, dated 2013).
Where “and” joins values, the source holds several entries; their conditions need not be identical. Equal values may be shown once.

Tests used:
[1] = test system: Trichoderma reesei beta-glucosidase TrCel3A variant TrCel3A-I543N, SEQ ID NO: 10 (full: SEQ ID NO: 125); assay: Initial rate assay of cellobiose hydrolysis, TrCel3A-I543N (Example 9); format: biochemical; conditions: relative to parental TrCel3A
Text: (§1) KG is defined as the concentration of glucose which reduces the enzymatic activity of the beta-glucosidase by 50%. […] The kcat is the catalytic rate constant for the hydrolysis of cellobiose. Example 8 details an assay for measuring the KG and KG2 of parental and modified TrCel3A beta-glucosidases. Example 9 details an assay for measuring the kcat of parental and modified TrCel3A beta-glucosidases.
(§2) KG of the parental and modified TrCel3A beta-glucosidases can be determined by measuring the rate of hydrolysis of a chromogenic substrate, such as p-nitrophenyl-beta-D-glucopyranoside (pNPG), in the presence of various concentrations of glucose as described in Example 8. […] The KG2 constants for parental and modified TrCel3A beta-glucosidases can be determined by measuring the rate of hydrolysis of cellobiose in reactions containing increasing concentrations of cellobiose or, alternatively, by measuring the rate of hydrolysis of a chromogenic substrate, such as pNPG, in the presence of various concentrations of a cellobiose as described in Example 8. […] The kcat values for parental and modified TrCel3A beta-glucosidases can be determined by measuring the rate of cellobiose hydrolysis at varying concentrations of a cellobiose substrate, for example, as described in Example 9. […]

[2] = target: T1, Trichoderma reesei beta-glucosidase TrCel3A (Cel3A, BGL1), wild type (parental), SEQ ID NO: 116 / SEQ ID NO: 1 (Trichoderma reesei, UniProt Q12715); assay: Initial rate assay of cellobiose hydrolysis, parental TrCel3A (Example 9); format: biochemical
T1 sequence (Q12715 32-744): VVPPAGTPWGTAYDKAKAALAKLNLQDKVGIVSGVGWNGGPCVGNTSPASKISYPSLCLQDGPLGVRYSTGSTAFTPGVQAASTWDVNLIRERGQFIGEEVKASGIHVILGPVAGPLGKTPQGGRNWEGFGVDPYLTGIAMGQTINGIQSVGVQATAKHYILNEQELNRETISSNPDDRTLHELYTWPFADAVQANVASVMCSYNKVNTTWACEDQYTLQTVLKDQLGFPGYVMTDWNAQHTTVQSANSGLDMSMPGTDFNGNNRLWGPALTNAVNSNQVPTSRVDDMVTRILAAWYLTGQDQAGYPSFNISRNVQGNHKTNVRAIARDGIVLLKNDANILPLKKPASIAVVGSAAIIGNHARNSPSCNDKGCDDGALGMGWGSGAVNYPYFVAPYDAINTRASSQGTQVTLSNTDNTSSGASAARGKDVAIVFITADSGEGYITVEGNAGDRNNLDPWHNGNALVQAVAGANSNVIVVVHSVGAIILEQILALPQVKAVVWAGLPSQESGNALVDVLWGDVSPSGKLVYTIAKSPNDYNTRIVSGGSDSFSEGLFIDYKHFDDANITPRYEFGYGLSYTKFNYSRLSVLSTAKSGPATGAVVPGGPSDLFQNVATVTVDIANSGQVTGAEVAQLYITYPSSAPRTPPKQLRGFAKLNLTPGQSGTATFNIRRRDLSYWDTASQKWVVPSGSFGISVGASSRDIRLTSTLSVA
Text: as §1, §2

[3] = target: T1, Trichoderma reesei beta-glucosidase TrCel3A (Cel3A, BGL1), wild type (parental), SEQ ID NO: 116 / SEQ ID NO: 1; assay: pNPG competitive substrate/inhibitor real-time kinetic assay, parental TrCel3A (Example 8)
[4] = target: Beta-glucosidases from most fungi; conditions: literature, read-out: KG values for glucose (glucose inhibition); cited from earlier work
[5] = target: Several microbial beta-glucosidases with higher tolerance to glucose inhibition; conditions: literature, read-out: KG (tolerance to glucose inhibition); cited from earlier work
[6] = substrate: OC[C@H]1O[C@@H](O[C@H]2[C@H](O)[C@@H](O)C(O)O[C@@H]2CO)[C@H](O)[C@@H](O)[C@@H]1O; assay: purified protein, by the assay type; conditions: other: 0.4 mM pNPG, 3 mM cellobiose, 50 mM citrate pH 5.0, 50° C.

Molecule: OC[C@H]1O[C@@H](O[C@H]2[C@H](O)[C@@H](O)C(O)O[C@@H]2CO)[C@H](O)[C@@H](O)[C@@H]1O (stereo partly drawn) [cellobiose, gluco-beta-(1,4)-glucoside]
- Relative kcat [1]: 0.73
- kcat (catalytic rate constant for cellobiose) ([2]; 0.3 to 40 mM cellobiose, 50° C., 15 min): 8.92 µmol/min/mg and 8.92 ± 0.29 µmol/min/mg
- Relative kcat ([2]; cellobiose, relative to parental TrCel3A): 1
- Relative KG2 ([3]; relative to parental TrCel3A): 1.00

Molecule: OC[C@H]1OC(O)[C@H](O)[C@@H](O)[C@@H]1O (some centres unmarked) [glucose]
- Ki [4]: 600 to 8000 µM
- Ki [3]: 580 µM
- Ki [5]: > 8000 µM

B1: Trichoderma reesei beta-glucosidase TrCel3A (Cel3A, BGL1), wild type (parental), SEQ ID NO: 116 / SEQ ID NO: 1 (Trichoderma reesei) (protein)
chain: VVPPAGTPWGTAYDKAKAALAKLNLQDKVGIVSGVGWNGGPCVGNTSPASKISYPSLCLQDGPLGVRYSTGSTAFTPGVQAASTWDVNLIRERGQFIGEEVKASGIHVILGPVAGPLGKTPQGGRNWEGFGVDPYLTGIAMGQTINGIQSVGVQATAKHYILNEQELNRETISSNPDDRTLHELYTWPFADAVQANVASVMCSYNKVNTTWACEDQYTLQTVLKDQLGFPGYVMTDWNAQHTTVQSANSGLDMSMPGTDFNGNNRLWGPALTNAVNSNQVPTSRVDDMVTRILAAWYLTGQDQAGYPSFNISRNVQGNHKTNVRAIARDGIVLLKNDANILPLKKPASIAVVGSAAIIGNHARNSPSCNDKGCDDGALGMGWGSGAVNYPYFVAPYDAINTRASSQGTQVTLSNTDNTSSGASAARGKDVAIVFITADSGEGYITVEGNAGDRNNLDPWHNGNALVQAVAGANSNVIVVVHSVGAIILEQILALPQVKAVVWAGLPSQESGNALVDVLWGDVSPSGKLVYTIAKSPNDYNTRIVSGGSDSFSEGLFIDYKHFDDANITPRYEFGYGLSYTKFNYSRLSVLSTAKSGPATGAVVPGGPSDLFQNVATVTVDIANSGQVTGAEVAQLYITYPSSAPRTPPKQLRGFAKLNLTPGQSGTATFNIRRRDLSYWDTASQKWVVPSGSFGISVGASSRDIRLTSTLSVA
- Km [6]: 1180 ± 120 µM
